How the values were obtained:
[1] = tested on: human bronchial epithelial cells (BEAS-2B cells); details: in vitro; cited from earlier work
BEAS-2B cells = details: cited from earlier work
cholinergic receptor = details: when interacting with the cholinergic receptor ligand; cited from earlier work
[2] = cited from earlier work

| SMILES | satisfaction of nicotine craving compared with previously used nicotine products (100 individuals, twice a day for 60 days, participants' opinion) | addictiveness (conclusion of the study) | sensitivity of BEAS-2B cells (cytotoxicity) compared with nicotine [1] | effect on CRP expression compared with nicotine (BEAS-2B cells; BEAS-2B cells) | effect on tumour development and metastasis compared with nicotine (BEAS-2B cells; NF-κB p65, EGFR, MET by immunoblotting and real-time PCR) | cancer-related proteins (CRPs) with differential expression compared with control group (BEAS-2B cells; transcriptome sequencing, BEAS-2B cells) | antinociceptive effects (cholinergic receptor) | lethal dose for humans [2] [mg] |
| --- | --- | --- | --- | --- | --- | --- | --- | --- |
| Cc1ccc([C@@H]2CCCN2C)cn1 [(S)-2-Methyl-5-(1-methyl-2-pyrrolidinyl)pyridine] | faster | not addictive | more sensitive | greater negative effect on CRP expression than nicotine | greater negative effect on tumour development and metastasis than nicotine | 1208 | displays antinociceptive effects |  |
| CN1CCC[C@H]1c1cccnc1 [Nicotine, 3-[(2S)-1-methyl-2-pyrrolidinyl]pyridine] |  |  |  |  |  |  |  | 50 to 100 |

Reference: patent US20250073215A1 (priority 2023, published 2025)
